Among the targets are EGFR(L858R) (Homo sapiens, UniProt P00533, L858R); GRK4 (Homo sapiens, UniProt P32298); HIPK3 (Homo sapiens, UniProt Q9H422); LTK (Homo sapiens, UniProt P29376); SBK1 (Homo sapiens, UniProt Q52WX2); FRK (Homo sapiens, UniProt P42685).
Holding throughout (test): biochemical
Set-up in all cases: KINOMEscan scanMAX competition binding, DNA-tagged kinases, qPCR read-out, percent control at 300 nM

The target in test [1] is EGFR(L747-E749del, A750P) (Homo sapiens, UniProt P00533, A750P/DEL747-749).
Chain of EGFR(L747-E749del, A750P) (P00533 with tags, fused parts or gaps DEL747-749/A750P): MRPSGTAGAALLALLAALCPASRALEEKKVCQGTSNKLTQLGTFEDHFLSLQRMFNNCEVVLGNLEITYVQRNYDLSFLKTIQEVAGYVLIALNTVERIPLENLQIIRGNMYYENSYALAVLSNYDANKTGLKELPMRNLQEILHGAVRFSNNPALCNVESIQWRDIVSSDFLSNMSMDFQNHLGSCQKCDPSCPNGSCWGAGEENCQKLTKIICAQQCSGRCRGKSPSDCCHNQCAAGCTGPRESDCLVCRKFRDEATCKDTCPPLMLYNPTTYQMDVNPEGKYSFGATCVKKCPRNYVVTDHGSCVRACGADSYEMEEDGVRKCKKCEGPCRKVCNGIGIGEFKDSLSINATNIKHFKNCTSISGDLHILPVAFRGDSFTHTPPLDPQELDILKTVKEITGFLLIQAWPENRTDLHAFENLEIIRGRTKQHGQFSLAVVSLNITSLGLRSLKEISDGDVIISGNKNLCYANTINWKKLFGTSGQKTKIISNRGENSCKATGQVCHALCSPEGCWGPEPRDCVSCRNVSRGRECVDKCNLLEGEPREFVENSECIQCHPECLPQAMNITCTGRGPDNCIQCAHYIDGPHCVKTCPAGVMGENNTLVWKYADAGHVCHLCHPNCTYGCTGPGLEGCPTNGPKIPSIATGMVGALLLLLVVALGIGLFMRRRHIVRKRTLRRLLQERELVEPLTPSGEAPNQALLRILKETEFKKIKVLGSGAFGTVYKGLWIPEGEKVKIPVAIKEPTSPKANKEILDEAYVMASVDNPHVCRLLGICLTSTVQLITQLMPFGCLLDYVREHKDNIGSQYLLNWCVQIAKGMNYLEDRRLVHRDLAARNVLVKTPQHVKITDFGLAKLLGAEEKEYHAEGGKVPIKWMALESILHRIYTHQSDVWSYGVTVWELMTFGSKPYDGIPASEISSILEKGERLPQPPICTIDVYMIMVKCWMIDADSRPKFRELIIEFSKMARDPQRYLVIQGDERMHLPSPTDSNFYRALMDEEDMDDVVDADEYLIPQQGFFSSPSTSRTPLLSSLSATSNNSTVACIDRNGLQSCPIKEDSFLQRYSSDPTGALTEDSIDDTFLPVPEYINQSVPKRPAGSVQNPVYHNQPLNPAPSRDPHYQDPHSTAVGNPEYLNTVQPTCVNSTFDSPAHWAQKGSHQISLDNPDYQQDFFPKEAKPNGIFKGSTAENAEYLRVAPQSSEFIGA
In another test the target is T1, TEC (Homo sapiens, UniProt P42680).
T1 sequence (P42680 1-631): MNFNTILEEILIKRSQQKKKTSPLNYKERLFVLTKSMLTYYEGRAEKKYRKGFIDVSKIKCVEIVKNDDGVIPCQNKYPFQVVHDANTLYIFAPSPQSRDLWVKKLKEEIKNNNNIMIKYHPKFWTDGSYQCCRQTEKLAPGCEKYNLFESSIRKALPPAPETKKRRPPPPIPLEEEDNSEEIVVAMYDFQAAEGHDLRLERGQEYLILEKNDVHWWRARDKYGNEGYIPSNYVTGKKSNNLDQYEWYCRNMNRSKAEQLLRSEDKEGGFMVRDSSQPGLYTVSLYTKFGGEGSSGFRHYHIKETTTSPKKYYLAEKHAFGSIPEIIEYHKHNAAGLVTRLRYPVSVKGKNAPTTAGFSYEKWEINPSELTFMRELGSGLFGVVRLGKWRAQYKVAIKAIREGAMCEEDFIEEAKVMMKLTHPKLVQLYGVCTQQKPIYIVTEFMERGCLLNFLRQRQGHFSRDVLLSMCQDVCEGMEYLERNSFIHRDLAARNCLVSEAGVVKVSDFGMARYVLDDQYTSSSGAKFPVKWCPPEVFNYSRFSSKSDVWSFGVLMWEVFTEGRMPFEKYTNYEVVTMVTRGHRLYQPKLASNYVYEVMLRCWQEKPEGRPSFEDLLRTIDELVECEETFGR

The target of a further test is T2, AURKA (Homo sapiens, UniProt O14965).
T2 sequence (O14965 1-403): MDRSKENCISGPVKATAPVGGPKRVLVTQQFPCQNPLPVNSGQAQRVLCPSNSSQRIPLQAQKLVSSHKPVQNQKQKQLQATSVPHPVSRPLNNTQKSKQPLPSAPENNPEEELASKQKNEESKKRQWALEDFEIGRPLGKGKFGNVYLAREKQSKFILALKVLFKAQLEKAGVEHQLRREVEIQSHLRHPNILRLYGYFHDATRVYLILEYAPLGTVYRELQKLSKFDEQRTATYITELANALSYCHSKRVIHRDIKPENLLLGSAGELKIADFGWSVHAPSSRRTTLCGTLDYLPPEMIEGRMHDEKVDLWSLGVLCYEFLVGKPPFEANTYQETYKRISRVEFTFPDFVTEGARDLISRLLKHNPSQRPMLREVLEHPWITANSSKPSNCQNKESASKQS

Where [2] appears, read: read-out: Percent control / Tirabrutinib.
Setting [3] is: read-out: Percent control / Acalabrutinib.
Where [4] appears, read: read-out: Percent control / Ibrutinib.
Setting [5] is: read-out: Percent control / Zanubrutinib.

Where two headings read alike, the source gives them in different places.

Chain of FRK (P42685 whole entry): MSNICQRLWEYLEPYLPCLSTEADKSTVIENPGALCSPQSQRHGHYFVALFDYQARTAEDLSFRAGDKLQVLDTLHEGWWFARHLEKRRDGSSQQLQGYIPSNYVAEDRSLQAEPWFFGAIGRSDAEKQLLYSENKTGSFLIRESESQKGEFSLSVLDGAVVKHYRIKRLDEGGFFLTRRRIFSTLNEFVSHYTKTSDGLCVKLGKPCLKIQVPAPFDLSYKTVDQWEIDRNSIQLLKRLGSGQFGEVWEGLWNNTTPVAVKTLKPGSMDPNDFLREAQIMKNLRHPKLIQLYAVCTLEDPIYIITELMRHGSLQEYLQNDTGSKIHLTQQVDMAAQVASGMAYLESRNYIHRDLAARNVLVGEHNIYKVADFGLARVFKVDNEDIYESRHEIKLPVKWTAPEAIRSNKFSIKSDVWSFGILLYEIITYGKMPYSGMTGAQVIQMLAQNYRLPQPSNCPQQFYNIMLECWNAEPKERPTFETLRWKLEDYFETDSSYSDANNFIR
Chain of LTK (P29376 whole entry): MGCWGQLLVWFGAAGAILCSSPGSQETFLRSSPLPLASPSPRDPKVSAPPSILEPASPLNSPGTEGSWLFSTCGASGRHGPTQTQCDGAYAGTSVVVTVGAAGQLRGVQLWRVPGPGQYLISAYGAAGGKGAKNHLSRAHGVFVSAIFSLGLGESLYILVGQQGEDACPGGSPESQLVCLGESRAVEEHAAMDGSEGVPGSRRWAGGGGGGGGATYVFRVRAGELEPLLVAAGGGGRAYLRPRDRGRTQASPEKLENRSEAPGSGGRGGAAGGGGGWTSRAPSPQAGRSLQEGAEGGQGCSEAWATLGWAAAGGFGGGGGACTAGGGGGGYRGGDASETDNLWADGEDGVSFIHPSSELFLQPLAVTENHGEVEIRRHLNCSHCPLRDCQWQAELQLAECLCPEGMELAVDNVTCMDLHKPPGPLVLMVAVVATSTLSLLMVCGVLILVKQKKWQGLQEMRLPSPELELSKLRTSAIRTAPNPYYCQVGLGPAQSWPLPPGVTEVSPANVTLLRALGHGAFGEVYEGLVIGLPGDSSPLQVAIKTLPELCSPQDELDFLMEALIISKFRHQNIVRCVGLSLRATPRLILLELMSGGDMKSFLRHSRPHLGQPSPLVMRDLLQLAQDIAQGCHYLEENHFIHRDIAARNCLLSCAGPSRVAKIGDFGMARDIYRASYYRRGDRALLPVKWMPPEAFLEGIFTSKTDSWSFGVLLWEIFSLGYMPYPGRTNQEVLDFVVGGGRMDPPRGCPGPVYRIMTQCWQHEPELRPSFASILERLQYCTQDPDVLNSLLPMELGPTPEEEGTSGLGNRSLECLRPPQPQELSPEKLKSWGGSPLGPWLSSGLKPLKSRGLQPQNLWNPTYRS
Chain of EGFR(L858R) (P00533 whole entry L858R): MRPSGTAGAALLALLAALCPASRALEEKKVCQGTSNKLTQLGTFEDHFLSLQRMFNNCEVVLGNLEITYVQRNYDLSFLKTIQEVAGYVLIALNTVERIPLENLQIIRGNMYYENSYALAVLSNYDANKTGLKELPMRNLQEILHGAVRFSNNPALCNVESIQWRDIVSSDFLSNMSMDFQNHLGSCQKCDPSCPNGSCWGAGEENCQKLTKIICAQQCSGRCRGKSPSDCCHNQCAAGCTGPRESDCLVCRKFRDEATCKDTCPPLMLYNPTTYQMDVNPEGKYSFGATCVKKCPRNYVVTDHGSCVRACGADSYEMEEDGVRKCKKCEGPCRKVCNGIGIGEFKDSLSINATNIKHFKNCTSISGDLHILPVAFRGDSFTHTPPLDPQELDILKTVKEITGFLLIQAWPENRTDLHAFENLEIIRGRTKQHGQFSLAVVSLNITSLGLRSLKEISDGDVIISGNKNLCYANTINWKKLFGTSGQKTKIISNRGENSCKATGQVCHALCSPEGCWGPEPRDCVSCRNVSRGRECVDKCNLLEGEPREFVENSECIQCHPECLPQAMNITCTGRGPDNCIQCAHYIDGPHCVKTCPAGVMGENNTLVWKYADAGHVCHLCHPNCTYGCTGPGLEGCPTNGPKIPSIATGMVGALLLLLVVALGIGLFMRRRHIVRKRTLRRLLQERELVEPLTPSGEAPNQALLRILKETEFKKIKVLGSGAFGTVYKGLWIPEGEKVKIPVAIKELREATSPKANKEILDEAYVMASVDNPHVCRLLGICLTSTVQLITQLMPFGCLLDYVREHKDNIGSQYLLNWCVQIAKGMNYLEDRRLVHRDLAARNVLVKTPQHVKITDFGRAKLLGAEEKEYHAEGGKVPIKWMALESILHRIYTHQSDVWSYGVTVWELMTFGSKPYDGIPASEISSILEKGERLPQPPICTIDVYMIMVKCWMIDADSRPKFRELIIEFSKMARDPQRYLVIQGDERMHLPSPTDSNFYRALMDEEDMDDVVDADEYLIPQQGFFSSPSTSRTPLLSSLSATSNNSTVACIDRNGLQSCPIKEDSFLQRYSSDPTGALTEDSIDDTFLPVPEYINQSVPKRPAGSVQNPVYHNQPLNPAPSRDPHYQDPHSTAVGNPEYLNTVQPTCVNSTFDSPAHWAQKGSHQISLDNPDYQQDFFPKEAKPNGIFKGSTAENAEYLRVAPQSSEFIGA
Chain of HIPK3 (Q9H422 whole entry): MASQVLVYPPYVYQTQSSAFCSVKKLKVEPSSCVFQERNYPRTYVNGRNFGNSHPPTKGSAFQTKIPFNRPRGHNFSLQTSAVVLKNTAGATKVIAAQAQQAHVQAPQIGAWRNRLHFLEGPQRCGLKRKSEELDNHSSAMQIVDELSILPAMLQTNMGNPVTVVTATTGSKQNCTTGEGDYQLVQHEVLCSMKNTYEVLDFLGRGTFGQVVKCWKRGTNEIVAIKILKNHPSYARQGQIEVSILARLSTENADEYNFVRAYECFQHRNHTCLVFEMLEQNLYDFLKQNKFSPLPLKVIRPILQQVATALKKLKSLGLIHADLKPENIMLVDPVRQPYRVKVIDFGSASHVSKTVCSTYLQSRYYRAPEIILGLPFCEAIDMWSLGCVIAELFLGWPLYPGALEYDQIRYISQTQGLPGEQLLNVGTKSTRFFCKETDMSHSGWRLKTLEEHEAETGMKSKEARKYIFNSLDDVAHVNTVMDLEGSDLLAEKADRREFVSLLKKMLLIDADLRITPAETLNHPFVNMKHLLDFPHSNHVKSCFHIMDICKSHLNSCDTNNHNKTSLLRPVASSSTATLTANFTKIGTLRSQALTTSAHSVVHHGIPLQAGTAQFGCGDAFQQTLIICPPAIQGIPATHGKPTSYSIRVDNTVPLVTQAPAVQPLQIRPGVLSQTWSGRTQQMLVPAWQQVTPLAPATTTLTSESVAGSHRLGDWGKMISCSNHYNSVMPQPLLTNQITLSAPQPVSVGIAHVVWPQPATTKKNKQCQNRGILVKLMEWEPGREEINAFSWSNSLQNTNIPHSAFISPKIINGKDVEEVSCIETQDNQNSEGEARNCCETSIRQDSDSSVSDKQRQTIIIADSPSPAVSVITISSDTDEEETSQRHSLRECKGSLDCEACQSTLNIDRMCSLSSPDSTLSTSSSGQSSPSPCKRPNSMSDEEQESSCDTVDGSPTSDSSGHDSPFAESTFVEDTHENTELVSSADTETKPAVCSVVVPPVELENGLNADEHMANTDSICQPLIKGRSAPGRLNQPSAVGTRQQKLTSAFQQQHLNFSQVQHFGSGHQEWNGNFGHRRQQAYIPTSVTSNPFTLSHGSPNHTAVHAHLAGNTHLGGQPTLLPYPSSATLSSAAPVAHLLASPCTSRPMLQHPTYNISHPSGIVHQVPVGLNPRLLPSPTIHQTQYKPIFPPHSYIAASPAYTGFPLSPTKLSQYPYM

For the compound `CC#CC(=O)N1CC[C@@H](n2c(=O)n(-c3ccc(Oc4ccccc4)cc3)c3c(N)ncnc32)C1` [Tirabrutinib], the remaining binding at 0.3 µM was 69% in [1] (setting [2]); 97% on EGFR(L858R) (setting [2]); 74% at GRK4 (setting [2]); 78% on HIPK3 (setting [2]); 100% at LTK (setting [2]); 53% on SBK1 (setting [2]). For the same compound, the remaining binding at 0.3 µM at TEC (setting [2]) stood at 7.8%.

Regarding `CC#CC(=O)N1CCC[C@H]1c1nc(-c2ccc(C(=O)Nc3ccccn3)cc2)c2c(N)nccn12` [Acalabrutinib], the remaining binding at 0.3 µM at AURKA (setting [3]) came out at 96%; in test [1] (setting [3]) it was 91%; at EGFR(L858R) (setting [3]), 93%; at FRK (setting [3]), 79%; on GRK4 (setting [3]) it was 89%; at HIPK3 (setting [3]) it was 99%. The remaining binding at 0.3 µM on LTK (setting [3]) came to 100%; at SBK1 (setting [3]) it was 91%; at TEC (setting [3]), 4.1%.

Consider `C=CC(=O)N1CCC[C@@H](n2nc(-c3ccc(Oc4ccccc4)cc3)c3c(N)ncnc32)C1` [Ibrutinib], for which the remaining binding at 0.3 µM at AURKA (setting [4]) is 94%; in [1] (setting [4]), 10%; at EGFR(L858R) (setting [4]) it was 5.6%; at FRK (setting [4]), 32%; at HIPK3 (setting [4]) it was 51%; on LTK (setting [4]) it was 78%. For the same compound, the remaining binding at 0.3 µM on SBK1 (setting [4]) was 47%; on TEC (setting [4]), 6%.

With `C=CC(=O)N1CCC([C@@H]2CCNc3c(C(N)=O)c(-c4ccc(Oc5ccccc5)cc4)nn32)CC1` [Zanubrutinib], the remaining binding at 0.3 µM at AURKA (setting [5]) is 92%; at FRK (setting [5]), 42%; at GRK4 (setting [5]), 85%; at HIPK3 (setting [5]), 97%; on LTK (setting [5]), 92%; at SBK1 (setting [5]), 94%. The remaining binding at 0.3 µM at TEC (setting [5]) was 20%.

(Values after paper PMC10004634 (PLOS ONE, 2023).)
